Results from patent US20190388389A1, “METHODS AND COMPOSITIONS OF CARNOSOL FOR INHIBITING UVB-INDUCED SKIN DAMAGE” (Ohio University, priority 2017, published 2019).

How the values were obtained:
ONOO^− in HaCaT cells = test: Peroxynitrite measurement (DAR) after UVB radiation; format: cell-based, Human; conditions: 20 μM carnosol
Protocol: FIGS. 4A-4B: Quantitative analysis of NO* and ONOO^− after UVB radiation. HaCaT cells were irradiated with UVB radiation in the presence or absence of carnosol (20 μM). At indicated time point, cells were stained with DAF-2DA or DAR. The fluorescent intensity was then measured and normalized to cell viability. (FIG. 4A) Quantitative measurement of NO*. (FIG. 4B) Quantitative measurement of ONOO^−. *p<0.05 versus corresponded group with carnosol treatment upon UVB radiation.
The level of NO* was measured by 5 mM diaminofluorescein diacetate (DAF-2DA) (ex490/em520 nm) and ONOO^− was measured by 5 mM diaminorhodamine (DAR) (ex488/em515 nm). 1×10^5 HaCaT cells were seeded in 96-well plate one day before measurement. […] The cells were then incubated in dark for 2 h at room temperature and the fluorescence was measured by luminometer (Molecular devices Spectra Max M2). The reading was then normalized by AlamarBlue cell viability assay (Life technology). 10% of the Alamar Blue reagent was added to cells with medium followed by 2 h incubation at 37° C. in dark then read the fluorescent at ex570/em590 nm using luminometer (Molecular devices Spectra Max M2).
Both NO* and ONOO^− are induced by UVB radiation. By using DAF-2DA (5 mM) and DAR (5 mM), the effect of carnosol on intracellular NO* and ONOO^− level, in a time dependent manner upon UVB radiation, was also measured.

[1] = system: γH2AX (phosphorylated H2AX); test: Western blot of DNA damage marker, MEF cells; format: cell-based, mouse; conditions: early stage post UVB 50 mJ/cm^2
Protocol: (§1) FIGS. 5A-5B: Carnosol protects UVB-induced DNA damage. (FIG. 5A) HaCaT cells and (FIG. 5B) MEF cells were exposed to 50 mJ/cm^2 UVB radiation in the presence or absence of carnosol. Cells were lysed at indicated time point and protein levels of phosphorylated H2AX and Chk were measured. The data represents three sets of independent experiments.
(§2) Cells were lysed with Nonidet P-40 (NP-40) lysis buffer (2% NP-40, 80 mM NaCl, 100 mM Tris-HCl pH 8.0, 0.1% SDS) with proteinase inhibitor mixture (Complete™, Roche Molecular Biochemicals) at indicated time point. Cell lysate was incubated on ice for 15 min and then centrifuged at 14,000 rpm at 4° C. for 15 min. Protein concentration was measured by Protein DC Assay kit (Bio-Rad Laboratories). Equal amounts of protein were subjected on SDS-PAGE and transferred to a nitrocellulose membrane. The membrane was then blocked in 5% milk in Tris buffered saline plus Tween 20 ® (TBST) for 45 min and probed with anti-yH2AX (Cell Signaling), anti-pCHK (Cell Signaling), anti-p276-NF-κB (Santa Cruz), anti-NF-κB p65 (Santa Cruz), anti-IκB (Santa Cruz), or anti-β-actin (Santa Cruz) at 4° C. overnight. After washing with TBST, the membrane was incubated with corresponding HRP-conjugated anti-rabbit or anti-mouse antibody for 45 min at room temperature. […]

phosphor-Chk = test: Western blot of DNA damage marker, MEF cells; format: cell-based, mouse; conditions: early stage post UVB 50 mJ/cm^2
Protocol: as §1, §2

[2] = UVB irradiation of carnosol in DMSO, Mass Spectrum; format: physicochemical; conditions: 50 mJ/cm^2 UVB
Protocol: FIG. 10B. The carnosol was irradiated with UVB first in the DMSO solution, and then a Mass Spectrum was run to detect the decomposition of the compound.
FIG. 10C. Four major decomposed compounds were detected, with their molecular structure and weight solved.
UVB was generated from a Bench XX-Series UV Lamp (UVP Inc.) equipped with two 15-watt UVB tubes (UVP Inc.). The intensity of UVB was calibrated by a UVP model UVX digital radiometer (UVP Inc.) after the lamps warmed up for 5 min. For irradiating cells, the dose rate for 8 mJ/cm^2 or 50 mJ/cm^2 of UVB radiation was 0.8 or 3.8 mW/s respectively. Medium was removed before exposing the cells to UVB. After UVB radiation, fresh medium was added to the culture plates with or without drugs, and the cells were continue incubating at 37° C. with 5% CO2 until further analysis. Carnosol was disovled in DMSO and was irradiated with 50 mJ/cm^2 of UVB radiation at a dose rate of 3.8 mW/s before subjecting to cells or structure analysis using Mass Spectrum.

CC(C)c1cc2c(c(O)c1O)[C@@]13CCCC(C)(C)[C@@H]1C[C@@H]2OC3=O [carnosol]
reduction of ONOO^− level (ONOO^− in HaCaT cells; average from 2 h to 24 h post UVB): about 40% | ONOO^− level of cells without radiation (ONOO^− in HaCaT cells; no UVB): little effect | phosphorylation level of H2AX [1]: reduced | phosphorylation level of Chk (phosphor-Chk): reduced | decomposition upon UVB radiation [2]: breaks down to 4 major products
